Results taken from ChEMBL document CHEMBL1909046, “DrugMatrix in vitro pharmacology data”.

Assays:
[1] = DRUGMATRIX: Glutamate, AMPA radioligand binding (ligand: [3H] AMPA); format: cell membranes, Rattus norvegicus, Wistar, Cerebral cortex, Membrane; conditions: Not Active = under 50% inhibition at 10 µM
[2] = DRUGMATRIX: Phorbol Ester radioligand binding (ligand: [3H] PDBu); format: cell membranes, Mus musculus, ICR, Brain, Membrane; conditions: Not Active = under 50% inhibition at 10 µM
[3] = DRUGMATRIX: Sodium/nucleoside co-transporter radioligand binding (ligand: nitrobenzylthioinosine); format: cell membranes, Cavia porcellus, Dunkin-Hartley, Cerebral cortex, Membrane; conditions: Not Active = under 50% inhibition at 10 µM
[4] = molecular target: T1, Receptor-type tyrosine-protein phosphatase C (Homo sapiens, UniProt P08575); design: species or system Escherichia coli;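 note: inhibition of CD45 enzyme activity measured using DiFMUP as substrate; in other assays of this panel Not Active means under 50% inhibition at 10 µM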
T1 sequence (P08575 whole entry): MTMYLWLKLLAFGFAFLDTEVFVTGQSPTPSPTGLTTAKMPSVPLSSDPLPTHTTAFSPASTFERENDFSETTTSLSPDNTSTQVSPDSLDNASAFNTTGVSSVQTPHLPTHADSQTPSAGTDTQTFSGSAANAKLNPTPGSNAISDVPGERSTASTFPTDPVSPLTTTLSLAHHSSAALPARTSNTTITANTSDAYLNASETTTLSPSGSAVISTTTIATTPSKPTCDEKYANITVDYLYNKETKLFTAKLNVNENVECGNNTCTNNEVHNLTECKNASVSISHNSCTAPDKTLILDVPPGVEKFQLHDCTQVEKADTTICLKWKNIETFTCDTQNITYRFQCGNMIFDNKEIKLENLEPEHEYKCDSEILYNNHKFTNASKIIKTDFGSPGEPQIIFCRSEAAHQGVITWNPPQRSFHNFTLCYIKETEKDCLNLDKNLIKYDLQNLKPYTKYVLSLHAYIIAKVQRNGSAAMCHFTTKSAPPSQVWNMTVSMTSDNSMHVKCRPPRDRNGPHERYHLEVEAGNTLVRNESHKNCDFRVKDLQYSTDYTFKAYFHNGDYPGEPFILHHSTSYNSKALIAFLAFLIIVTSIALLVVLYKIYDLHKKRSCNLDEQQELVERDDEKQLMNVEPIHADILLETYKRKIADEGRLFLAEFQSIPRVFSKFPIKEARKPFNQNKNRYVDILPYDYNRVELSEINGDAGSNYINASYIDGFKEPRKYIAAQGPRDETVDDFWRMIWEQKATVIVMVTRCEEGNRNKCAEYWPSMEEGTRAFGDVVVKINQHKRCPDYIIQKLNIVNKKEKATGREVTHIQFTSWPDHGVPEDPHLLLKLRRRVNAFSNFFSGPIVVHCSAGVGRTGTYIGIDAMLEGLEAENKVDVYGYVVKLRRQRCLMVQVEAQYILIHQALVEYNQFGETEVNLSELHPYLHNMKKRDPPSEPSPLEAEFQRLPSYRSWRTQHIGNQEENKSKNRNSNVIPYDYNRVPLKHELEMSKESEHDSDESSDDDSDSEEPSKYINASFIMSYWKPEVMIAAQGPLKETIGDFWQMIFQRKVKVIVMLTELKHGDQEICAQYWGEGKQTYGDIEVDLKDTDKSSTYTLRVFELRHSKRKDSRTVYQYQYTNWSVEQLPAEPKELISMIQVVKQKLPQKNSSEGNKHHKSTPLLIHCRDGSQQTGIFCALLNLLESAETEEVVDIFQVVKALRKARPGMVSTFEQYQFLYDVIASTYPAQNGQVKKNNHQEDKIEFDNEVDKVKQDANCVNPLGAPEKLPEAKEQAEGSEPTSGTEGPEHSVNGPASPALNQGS

[5] = molecular target: T2, Alpha-1D adrenergic receptor (Homo sapiens, UniProt P25100); format: cell membranes, HEK293, Membrane; conditions: hek293; note: in other assays of this panel Not Active means under 50% inhibition at 10 µM
T2 sequence (P25100 whole entry): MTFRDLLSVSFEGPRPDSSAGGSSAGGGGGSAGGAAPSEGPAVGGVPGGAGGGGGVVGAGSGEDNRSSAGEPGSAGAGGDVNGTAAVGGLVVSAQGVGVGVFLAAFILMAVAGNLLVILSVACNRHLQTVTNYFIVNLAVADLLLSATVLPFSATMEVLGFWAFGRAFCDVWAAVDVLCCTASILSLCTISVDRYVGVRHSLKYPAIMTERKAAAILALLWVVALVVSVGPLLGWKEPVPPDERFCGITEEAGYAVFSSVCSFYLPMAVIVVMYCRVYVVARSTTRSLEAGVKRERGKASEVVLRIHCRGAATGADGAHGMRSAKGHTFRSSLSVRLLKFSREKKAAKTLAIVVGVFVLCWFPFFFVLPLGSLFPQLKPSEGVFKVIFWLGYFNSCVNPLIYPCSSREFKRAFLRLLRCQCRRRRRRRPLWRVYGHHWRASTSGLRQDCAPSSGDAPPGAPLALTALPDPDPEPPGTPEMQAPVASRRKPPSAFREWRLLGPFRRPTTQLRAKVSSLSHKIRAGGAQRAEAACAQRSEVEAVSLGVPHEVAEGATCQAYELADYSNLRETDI

Leukotriene C4 synthase = molecular target: T3, Leukotriene C4 synthase (Cavia porcellus, UniProt A6XA80); format: tissue-based, Lung;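 note: enzyme inhibition assay of leukotriene C4 synthase, using LTA4 as the substrate; in other assays of this panel Not Active means under 50% inhibition at 10 µM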
T3 sequence (A6XA80 whole entry): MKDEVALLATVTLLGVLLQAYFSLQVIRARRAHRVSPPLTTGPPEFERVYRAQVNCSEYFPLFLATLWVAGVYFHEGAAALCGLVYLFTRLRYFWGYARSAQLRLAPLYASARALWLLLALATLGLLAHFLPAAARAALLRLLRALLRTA

Calcitonin receptor = molecular target: T4, Calcitonin receptor (Homo sapiens, UniProt P30988); format: cell membranes, Membrane; conditions: t47d; note: in other assays of this panel Not Active means under 50% inhibition at 10 µM
T4 sequence (P30988 whole entry): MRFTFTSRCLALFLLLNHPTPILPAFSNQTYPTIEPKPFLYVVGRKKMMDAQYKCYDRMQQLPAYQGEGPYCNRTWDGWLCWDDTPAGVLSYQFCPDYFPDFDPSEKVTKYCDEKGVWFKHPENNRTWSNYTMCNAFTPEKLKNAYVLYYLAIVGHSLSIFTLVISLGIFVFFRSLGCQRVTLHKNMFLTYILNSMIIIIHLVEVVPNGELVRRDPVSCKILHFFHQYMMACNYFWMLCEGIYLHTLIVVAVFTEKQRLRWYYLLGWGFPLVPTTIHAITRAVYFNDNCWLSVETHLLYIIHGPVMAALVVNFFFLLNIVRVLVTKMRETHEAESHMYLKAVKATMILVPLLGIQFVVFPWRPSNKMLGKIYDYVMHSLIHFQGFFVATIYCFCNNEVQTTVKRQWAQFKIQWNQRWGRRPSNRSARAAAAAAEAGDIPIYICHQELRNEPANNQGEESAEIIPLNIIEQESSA

Substance-P receptor = Substance-P receptor (Homo sapiens, UniProt P25103); format: cell membranes, CHO, Membrane; conditions: cho; note: in other assays of this panel Not Active means under 50% inhibition at 10 µM
Sequence of Substance-P receptor (P25103 whole entry): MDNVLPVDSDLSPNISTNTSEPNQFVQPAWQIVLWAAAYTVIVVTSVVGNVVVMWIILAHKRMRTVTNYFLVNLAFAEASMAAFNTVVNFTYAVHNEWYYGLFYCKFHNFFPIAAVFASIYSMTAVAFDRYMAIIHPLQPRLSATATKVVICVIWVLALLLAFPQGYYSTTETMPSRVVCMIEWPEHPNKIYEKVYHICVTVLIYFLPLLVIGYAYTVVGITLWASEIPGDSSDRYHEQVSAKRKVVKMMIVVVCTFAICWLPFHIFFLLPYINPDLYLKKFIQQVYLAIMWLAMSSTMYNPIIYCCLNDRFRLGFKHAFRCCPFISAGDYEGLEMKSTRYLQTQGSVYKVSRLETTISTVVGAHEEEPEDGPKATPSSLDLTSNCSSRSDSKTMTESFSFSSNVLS

GADOPENTETATE DIMEGLUMINE
Not Active: IC50 [1] | Ki [1] | IC50 [2] | Ki [2] | IC50 [3] | Ki [3] | IC50 [4] | Ki [4] | IC50 [5] | Ki [5] | IC50 (Leukotriene C4 synthase) | Ki (Leukotriene C4 synthase) | IC50 (Calcitonin receptor) | Ki (Calcitonin receptor) | IC50 (Substance-P receptor) | Ki (Substance-P receptor)

GENTAMICIN
Not Active: IC50 [1] | Ki [1] | IC50 [2] | Ki [2] | IC50 [3] | Ki [3] | IC50 [4] | Ki [4] | IC50 [5] | Ki [5] | IC50 (Leukotriene C4 synthase) | Ki (Leukotriene C4 synthase) | IC50 (Calcitonin receptor) | Ki (Calcitonin receptor) | IC50 (Substance-P receptor) | Ki (Substance-P receptor)

GRAMICIDIN
Not Active: IC50 [1] | Ki [1] | IC50 [2] | Ki [2] | IC50 [3] | Ki [3] | IC50 [4] | Ki [4] | IC50 [5] | Ki [5] | IC50 (Leukotriene C4 synthase) | Ki (Leukotriene C4 synthase) | IC50 (Calcitonin receptor) | Ki (Calcitonin receptor) | IC50 (Substance-P receptor) | Ki (Substance-P receptor)

NYSTATIN
Not Active: IC50 [1] | Ki [1] | IC50 [2] | Ki [2] | IC50 [3] | Ki [3] | IC50 [4] | Ki [4] | IC50 [5] | Ki [5] | IC50 (Leukotriene C4 synthase) | Ki (Leukotriene C4 synthase) | IC50 (Calcitonin receptor) | Ki (Calcitonin receptor) | IC50 (Substance-P receptor) | Ki (Substance-P receptor)
